Consider 7 compounds from ChEMBL document CHEMBL3046588, “Design, synthesis, and in vitro evaluation of cytotoxic activity of new substituted 1,4-benzoquinones and hydroquinones” (2007).

What all share (format): functional
The nature of assay [1]: Cytotoxicity against Homo sapiens (human) breast cancer cells after 48 hr by SRB assay. The conditions noted are these: Cancer cell lines; for LC50 (concentration giving 50% net cell kill): pooled result: one value given for 9 cell lines, strains, targets or settings.
Assay [2] in a line: Cytotoxicity against Homo sapiens (human) prostate cancer cells after 48 hr by SRB assay. The conditions noted are these: Cancer cell lines.
Assay [3] can be described thus: Cytotoxicity against Homo sapiens (human) renal cancer cells after 48 hr by SRB assay. The settings on record: Cancer cell lines.
Assay [4] is described as follows: Cytotoxicity against Homo sapiens (human) ovarian cancer cells after 48 hr by SRB assay. The conditions noted are these: Cancer cell lines.
Assay [5] can be described thus: Cytotoxicity against Homo sapiens (human) CNS cancer cells after 48 hr by SRB assay. The settings on record: Cancer cell lines.
A short description of assay [6]: Cytotoxicity against Homo sapiens (human) melanoma cellsafter 48 hr by SRB assay. The conditions noted are these: Melanoma cell.
Assay [7] in a line: Cytotoxicity against Homo sapiens (human) colon cancer cells after 48 hr by SRB assay. The conditions noted are these: Cancer cell lines.
A short description of assay [8]: Cytotoxicity against Homo sapiens (human) leukemia cells after 48 hr by SRB assay. The conditions noted are these: Leukemia cell.
Assay [9] can be described thus: Cytotoxicity against Homo sapiens (human) non-small cell lung cancer cells after 48 hr by SRB assay. The settings on record: Cancer cell lines.
The subject of a further assay is SF-268. Nature of the assay: Cytotoxicity against Homo sapiens (human) SF268 cells assessed as cellular growth after 48 hr by Alamar blue assay. Also noted: concentration or dose not given beside the values.
The subject of the next assay is MCF7. The assay is described as follows: Cytotoxicity against Homo sapiens (human) MCF7 cells assessed as cellular growth after 48 hr by Alamar blue assay. Also noted: concentration or dose not given beside the values.
A further assay relates to NCI-H460. Nature of the assay: Cytotoxicity against Homo sapiens (human) NCI-H460 cells assessed as cellular growth after 48 hr by Alamar blue assay. Also noted: concentration or dose not given beside the values.

As for `CC(=O)NS(=O)(=O)c1ccc(-n2nc(-c3ccccc3)cc2C2=CC(=O)C=CC2=O)cc1`, the GI50 came to 78.5 µM in assay [1]; 100 µM in [2]; 90 µM in assay [3]; 100 µM in assay [4]; 100 µM in [5]; 92 µM in assay [6]. Also, the figures for the GI50 in assay [7], in [8] and in assay [9] were 78.4 µM, 57.8 µM and 100 µM, respectively. The TGI in assay [1], in assay [2], in [3], in assay [4], in assay [5] and in [6] was 100 µM in each case. The values for the TGI in assay [7], in [8] and in assay [9] were 100 µM, 91.2 µM and 100 µM, respectively. The compound further displayed an LC50 (concentration giving 50% net cell kill) in [1] of 100 µM. The Activity in the assay on SF-268, in the assay on MCF7 and in the assay with NCI-H460 was less than 32% in each case.

For `O=C1C=CC(=O)C(c2cc(-c3ccc(Cl)cc3)nn2-c2ccccc2)=C1`, the GI50 in assay [1] was 51.5 µM; in assay [2] it was 36.5 µM; in assay [3] it was 55.6 µM; in assay [4], 67.3 µM; in [5], 65.3 µM; in assay [6], 69.4 µM. The figures for the GI50 in [7], in [8] and in [9] were 42.4 µM, 27.8 µM and 53.5 µM, respectively. Further, the TGI in assay [1] was 69.3 µM; in assay [2], 66.3 µM; in assay [3], 53.3 µM; in assay [4], 81.7 µM; in assay [5], 55.8 µM; in assay [6], 55.4 µM. The TGI in assay [7] worked out at 69.7 µM; in assay [8] it was 87.1 µM; in assay [9], 70.1 µM. Moreover, the LC50 (concentration giving 50% net cell kill) in [1] stood at 95.6 µM. The Activity with SF-268, in the assay with MCF7 and in the assay on NCI-H460 was less than 32% in each case.

Regarding `COc1ccc(OC)c(-c2cc(-c3ccc(Cl)cc3)nn2-c2ccccc2)c1`, the GI50 in assay [1] was 17.7 µM; in [2], 60.5 µM; in [3] it was 34.9 µM; in assay [4], 49 µM; in assay [5] it was 29.2 µM; in assay [6], 34.9 µM. In addition, the figures for the GI50 in [7], in assay [8] and in assay [9] were 25.2 µM, 11.1 µM and 40.6 µM, respectively. Also, the TGI in assay [1] came to 78.6 µM; in assay [2], 100 µM; in assay [3] it was 77.4 µM; in [4], 85.2 µM; in assay [5] it was 84.3 µM; in [6] it was 70 µM. Besides, the TGI stood at 82.8 µM in [7], 78.2 µM in assay [8] and 100 µM in assay [9]. In addition, the LC50 (concentration giving 50% net cell kill) in assay [1] is 99.8 µM. Besides, the Activity in the assay on SF-268, in the assay with MCF7 and in the assay with NCI-H460 was less than 32% in each case.

For `COc1ccc(OC)c(-c2cc(-c3ccc(Cl)cc3)nn2-c2ccc(S(=O)(=O)NC(C)=O)cc2)c1`, the GI50 in assay [1] worked out at 25.4 µM; in assay [2] it was 3.61 µM; in assay [3], 17.7 µM; in [4], 23.4 µM; in assay [5], 19.4 µM; in assay [6], 10.7 µM. In addition, the GI50 in assay [7] came to 8.18 µM; in [8] it was 7.45 µM; in [9], 17.7 µM. In addition, the TGI in assay [1] was 70.2 µM; in assay [2] it was 21.9 µM; in assay [3], 53.2 µM; in assay [4], 67.1 µM; in [5] it was 50 µM; in assay [6] it was 28.7 µM. The TGI in [7] is 36 µM; in assay [8], 50.1 µM; in assay [9], 52.6 µM. Besides, the LC50 (concentration giving 50% net cell kill) in [1] came out at 79.2 µM. Moreover, the Activity in the assay on SF-268, with MCF7 and in the assay with NCI-H460 was less than 32% throughout.

With `NS(=O)(=O)c1ccc(-n2nc(-c3ccc(Cl)cc3)cc2-c2cc(O)ccc2O)cc1`, the GI50 in assay [1] worked out at 16.7 µM; in [2], 13.4 µM; in assay [3], 12 µM; in assay [4], 14.7 µM; in assay [5], 17.8 µM; in [6], 14.6 µM. In addition, the GI50 in assay [7] came out at 15.1 µM; in assay [8], 5.03 µM; in [9], 13 µM. Further, the TGI in assay [1] is 54.5 µM; in assay [2], 29.8 µM; in [3] it was 35.4 µM; in assay [4] it was 50.9 µM; in assay [5] it was 35.5 µM; in assay [6], 38.9 µM. Moreover, the results for the TGI in [7], in [8] and in assay [9] were 43.1 µM, 61.4 µM and 39.1 µM, respectively. In assay [1], the LC50 (concentration giving 50% net cell kill) was found to be 76.6 µM. Besides, the Activity in the assay with SF-268, in the assay on MCF7 and with NCI-H460 was less than 32% throughout.

`CC1=NN(c2ccc(Br)cc2)C(=O)C1CC(=O)c1cc(O)ccc1O` (centres undefined): the GI50 in [1] is 19.1 µM; in assay [2] it was 42.2 µM; in [3], 39.8 µM; in assay [4] it was 34.2 µM; in assay [5], 25.8 µM; in assay [6], 28 µM. Further, the GI50 turned out to be 36 µM in assay [7], 7.75 µM in [8] and 38.2 µM in assay [9]. Further, the TGI in [1] came out at 38.2 µM; in assay [2], 50 µM; in [3] it was 46.1 µM; in assay [4], 50 µM; in [5], 46 µM; in assay [6], 42.6 µM. Further, the TGI in assay [7] stood at 45.5 µM; in assay [8] it was 35.8 µM; in assay [9] it was 48.6 µM. This compound also gave an LC50 (concentration giving 50% net cell kill) in assay [1] of 49.6 µM. For the same compound, the Activity with SF-268, in the assay on MCF7 and in the assay on NCI-H460 was less than 32% throughout.

Take `COc1ccc(OC)c(-c2cc(-c3ccccc3)nn2-c2ccc(S(=O)(=O)NC(C)=O)cc2)c1`: the GI50 came to 9.7 µM in [1]; 12 µM in [2]; 13.3 µM in assay [3]; 13.3 µM in assay [4]; 18.1 µM in [5]; 15.4 µM in assay [6]. The GI50 is 3.74 µM in [7], 7.4 µM in [8] and 15.3 µM in assay [9]. Also, the TGI was determined as 44.5 µM in assay [1]; 28.8 µM in assay [2]; 37.6 µM in assay [3]; 50.7 µM in assay [4]; 42.6 µM in [5]; 36.2 µM in [6]. Also, the values for the TGI in assay [7], in [8] and in [9] were 18.2 µM, 53.4 µM and 49.8 µM, respectively. Further, the LC50 (concentration giving 50% net cell kill) in assay [1] came out at 77.1 µM. The Activity with SF-268, in the assay on MCF7 and in the assay on NCI-H460 was less than 32% throughout.
